In patent publication US20210038515A1 (Azurity Pharmaceuticals, Inc., priority 2014, published 2021):

Test system: Clostridium difficile
Test: Agar dilution MIC of vancomycin preparations (Sigma, Cutis), diluent, Na benzoate and Na citrate
Assay type: cell-based
Details: for MIC, AV (average): average of triplicate; for MIC, VAN-1: replicate 1; for MIC, VAN-2: replicate 2; for MIC, VAN-3: replicate 3
Protocol: Introduction: The purpose of the study was to compare the MICs obtained with the formulation of vancomycin HCL of the invention (Cutis) to formulations obtained using a vancomycin HCL reference standard powder obtained from Sigma. The Example also involves the analysis of a solution or diluent to determine if it has antimicrobial activity at the concentrations present in the agar dilution test.
The C. difficile were tested by agar dilution according to the procedures in the Clinical and Laboratory Standards Institute. 2012. Methods for antimicrobial susceptibility testing of anaerobic bacteria; approved standard-seventh edition.
Other anaerobic organisms included clinical isolates of Bifidobacterium adolescentis and Bacteroides fragilis. Clostridium difficile ATCC 700057 was included as a quality control strain.
The C. difficile isolates were recovered from patients with CDI during the past two years and stored at −70° C. in 20% skim milk. Ribotyping was performed by another reference laboratory. The strains were taken from the freezer and subcultured at least twice to ensure purity and good growth.
On the day of testing, they were suspended in Brucella broth to the turbidity of the 0.5 McFarland standard for testing.
Stock solution of the Sigma vancomycin was prepared in water and stored at −70° C. On the day of testing, it was thawed and further diluted in water to obtain the desired range of 16-0.125 μg/ml. The Cutis vancomycin (25 mg/ml) was reconstituted on the day of testing and further diluted for a final range of 16-0.125 μg/ml in the test. The antimicrobials were added to molten Brucella agar supplemented with vitamin K and hemin to prepare the plates. Drug-free growth controls were included for testing before and after each set of plates. All testing was done in triplicate.
The organisms were pipetted into the wells of the Steers replicator head and applied to the plates with the multi-pronged replicator. The final concentration of organisms was ˜10^5 CFU/spot.
The plates were incubated in the anaerobic chamber incubator for 44 h and examined for growth.
The Cutis diluent comprises: water, about 0.12% (w/v) citric acid (anhydrous), 0.2% (w/v) sucralose, about 0.05% (w/v) artificial grape flavor, 0.1% (w/v) sodium benzoate, about 0.0002% (w/v) D&C Yellow No. 10 and about 0.000038% (w/v) FD&C Red No. 40.

CN[C@H](CC(C)C)C(=O)N[C@H]1C(=O)N[C@@H](CC(N)=O)C(=O)N[C@H]2C(=O)N[C@H]3C(=O)N[C@H](C(=O)N[C@H](C(=O)O)c4cc(O)cc(O)c4-c4cc3ccc4O)[C@H](O)c3ccc(c(Cl)c3)Oc3cc2cc(c3O[C@@H]2O[C@H](CO)[C@@H](O)[C@H](O)[C@H]2O[C@H]2C[C@](C)(N)[C@H](O)[C@H](C)O2)Oc2ccc(cc2Cl)[C@H]1O.Cl [Sigma]
MIC, AV (average) (RMA 24690, ribotype 027): 5.3 µg/mL | MIC, VAN-1 (RMA 24690, ribotype 027): 4 µg/mL | MIC, VAN-2 (RMA 24690, ribotype 027): 4 µg/mL | MIC, VAN-3 (RMA 24690, ribotype 027): 8 µg/mL | MIC, AV (average) (RMA 26381, ribotype 017): 1.7 µg/mL | MIC, VAN-1 (RMA 26381, ribotype 017): 2 µg/mL | MIC, VAN-2 (RMA 26381, ribotype 017): 2 µg/mL | MIC, VAN-3 (RMA 26381, ribotype 017): 1 µg/mL | MIC, AV (average) (RMA 26442, ribotype 017): 1 µg/mL | MIC, VAN-1 (RMA 26442, ribotype 017): 1 µg/mL | MIC, VAN-2 (RMA 26442, ribotype 017): 1 µg/mL | MIC, VAN-3 (RMA 26442, ribotype 017): 1 µg/mL | MIC, AV (average) (RMA 26443, ribotype 027): 4 µg/mL | MIC, VAN-1 (RMA 26443, ribotype 027): 4 µg/mL | MIC, VAN-2 (RMA 26443, ribotype 027): 4 µg/mL | MIC, VAN-3 (RMA 26443, ribotype 027): 4 µg/mL | MIC, AV (average) (RMA 26445, ribotype 017): 2 µg/mL | MIC, VAN-1 (RMA 26445, ribotype 017): 2 µg/mL | MIC, VAN-2 (RMA 26445, ribotype 017): 2 µg/mL | MIC, VAN-3 (RMA 26445, ribotype 017): 2 µg/mL | MIC, AV (average) (RMA 26446, ribotype 027): 1 µg/mL | MIC, VAN-1 (RMA 26446, ribotype 027): 1 µg/mL | MIC, VAN-2 (RMA 26446, ribotype 027): 1 µg/mL | MIC, VAN-3 (RMA 26446, ribotype 027): 1 µg/mL | MIC, AV (average) (RMA 26447, ribotype 001): 2 µg/mL | MIC, VAN-1 (RMA 26447, ribotype 001): 2 µg/mL | MIC, VAN-2 (RMA 26447, ribotype 001): 2 µg/mL | MIC, VAN-3 (RMA 26447, ribotype 001): 2 µg/mL | MIC, AV (average) (RMA 26451, ribotype 001): 1.7 µg/mL | MIC, VAN-1 (RMA 26451, ribotype 001): 2 µg/mL | MIC, VAN-2 (RMA 26451, ribotype 001): 2 µg/mL | MIC, VAN-3 (RMA 26451, ribotype 001): 1 µg/mL | MIC, AV (average) (RMA 26455, ribotype 027): 1 µg/mL | MIC, VAN-1 (RMA 26455, ribotype 027): 1 µg/mL | MIC, VAN-2 (RMA 26455, ribotype 027): 1 µg/mL | MIC, VAN-3 (RMA 26455, ribotype 027): 1 µg/mL | MIC, AV (average) (RMA 26457, ribotype 027): 1 µg/mL | MIC, VAN-1 (RMA 26457, ribotype 027): 1 µg/mL | MIC, VAN-2 (RMA 26457, ribotype 027): 1 µg/mL | MIC, VAN-3 (RMA 26457, ribotype 027): 1 µg/mL | MIC, AV (average) (RMA 26461, ribotype 106): 1.3 µg/mL | MIC, VAN-1 (RMA 26461, ribotype 106): 1 µg/mL | MIC, VAN-2 (RMA 26461, ribotype 106): 2 µg/mL | MIC, VAN-3 (RMA 26461, ribotype 106): 1 µg/mL | MIC, AV (average) (RMA 26463, ribotype 002): 1.3 µg/mL | MIC, VAN-1 (RMA 26463, ribotype 002): 1 µg/mL | MIC, VAN-2 (RMA 26463, ribotype 002): 2 µg/mL | MIC, VAN-3 (RMA 26463, ribotype 002): 1 µg/mL | MIC, AV (average) (RMA 26466, ribotype 020): 1.7 µg/mL | MIC, VAN-1 (RMA 26466, ribotype 020): 2 µg/mL | MIC, VAN-2 (RMA 26466, ribotype 020): 2 µg/mL | MIC, VAN-3 (RMA 26466, ribotype 020): 1 µg/mL | MIC, AV (average) (RMA 26467, ribotype 002): 1.3 µg/mL | MIC, VAN-1 (RMA 26467, ribotype 002): 1 µg/mL | MIC, VAN-2 (RMA 26467, ribotype 002): 2 µg/mL | MIC, VAN-3 (RMA 26467, ribotype 002): 1 µg/mL | MIC, AV (average) (RMA 26471, ribotype 001): 2 µg/mL | MIC, VAN-1 (RMA 26471, ribotype 001): 2 µg/mL | MIC, VAN-2 (RMA 26471, ribotype 001): 2 µg/mL | MIC, VAN-3 (RMA 26471, ribotype 001): 2 µg/mL | MIC, AV (average) (RMA 26472, ribotype 014): 1 µg/mL | MIC, VAN-1 (RMA 26472, ribotype 014): 1 µg/mL | MIC, VAN-2 (RMA 26472, ribotype 014): 1 µg/mL | MIC, VAN-3 (RMA 26472, ribotype 014): 1 µg/mL | MIC, AV (average) (RMA 26480, ribotype 106): 1 µg/mL | MIC, VAN-1 (RMA 26480, ribotype 106): 1 µg/mL | MIC, VAN-2 (RMA 26480, ribotype 106): 1 µg/mL | MIC, VAN-3 (RMA 26480, ribotype 106): 1 µg/mL | MIC, AV (average) (RMA 26484, ribotype 106): 1 µg/mL | MIC, VAN-1 (RMA 26484, ribotype 106): 1 µg/mL | MIC, VAN-2 (RMA 26484, ribotype 106): 1 µg/mL | MIC, VAN-3 (RMA 26484, ribotype 106): 1 µg/mL | MIC, AV (average) (RMA 26485, ribotype 078): 1.3 µg/mL | MIC, VAN-1 (RMA 26485, ribotype 078): 2 µg/mL | MIC, VAN-2 (RMA 26485, ribotype 078): 1 µg/mL | MIC, VAN-3 (RMA 26485, ribotype 078): 1 µg/mL | MIC, AV (average) (RMA 26489, ribotype 176): 1 µg/mL | MIC, VAN-1 (RMA 26489, ribotype 176): 1 µg/mL | MIC, VAN-2 (RMA 26489, ribotype 176): 1 µg/mL | MIC, VAN-3 (RMA 26489, ribotype 176): 1 µg/mL | MIC, AV (average) (RMA 26494, ribotype 126): 1.3 µg/mL | MIC, VAN-1 (RMA 26494, ribotype 126): 1 µg/mL | MIC, VAN-2 (RMA 26494, ribotype 126): 2 µg/mL | MIC, VAN-3 (RMA 26494, ribotype 126): 1 µg/mL | MIC, AV (average) (RMA 26500, ribotype 014): 1 µg/mL | MIC, VAN-1 (RMA 26500, ribotype 014): 1 µg/mL | MIC, VAN-2 (RMA 26500, ribotype 014): 1 µg/mL | MIC, VAN-3 (RMA 26500, ribotype 014): 1 µg/mL | MIC, AV (average) (RMA 26503, ribotype 014): 1 µg/mL | MIC, VAN-1 (RMA 26503, ribotype 014): 1 µg/mL | MIC, VAN-2 (RMA 26503, ribotype 014): 1 µg/mL | MIC, VAN-3 (RMA 26503, ribotype 014): 1 µg/mL | MIC, AV (average) (RMA 26543, ribotype 078): 1 µg/mL | MIC, VAN-1 (RMA 26543, ribotype 078): 1 µg/mL | MIC, VAN-2 (RMA 26543, ribotype 078): 1 µg/mL | MIC, VAN-3 (RMA 26543, ribotype 078): 1 µg/mL | MIC, AV (average) (RMA 26544, ribotype 078): 2 µg/mL | MIC, VAN-1 (RMA 26544, ribotype 078): 2 µg/mL | MIC, VAN-2 (RMA 26544, ribotype 078): 2 µg/mL | MIC, VAN-3 (RMA 26544, ribotype 078): 2 µg/mL | MIC, AV (average) (RMA 26563, ribotype 018): 1 µg/mL | MIC, VAN-1 (RMA 26563, ribotype 018): 1 µg/mL | MIC, VAN-2 (RMA 26563, ribotype 018): 1 µg/mL | MIC, VAN-3 (RMA 26563, ribotype 018): 1 µg/mL | MIC, AV (average) (RMA 26572, ribotype 017): 1.7 µg/mL | MIC, VAN-1 (RMA 26572, ribotype 017): 2 µg/mL | MIC, VAN-2 (RMA 26572, ribotype 017): 2 µg/mL | MIC, VAN-3 (RMA 26572, ribotype 017): 1 µg/mL
